Here are results for 3 molecules from patent US12503473B2, “Triazolopyrimidine compounds and their use in treating cancer” (Dizal (Jiangsu) Pharmaceutical Co., Ltd., priority 2018, dated 2025).

The subject of experiment [1] is NCI H358 subcutaneous xenograft. The experiment is described as follows: Human lung cancer xenograft model, VEGFR TKI combination. It is filed as in vivo, female nude mice. The method, then:
The in vivo efficacy of MCT4 inhibitors has been tested in human xenograft models. The NSCLC cell line NCI H358 can be grown as a subcutaneous xenograft in female nude mice and tumour volume calculated from bilateral caliper measurements. For efficacy studies three million NCI H358 cells were inoculated sub-cutaneously onto the left flank of the animal in a volume of 0.1 ml serum free media (RPMI) and matrigel. Animals were assigned into treatment groups 14 days after cell implantation and received either AZD2171 (3 mg/kg QD) (Wedge et al., (2005) Cancer Res. 65:4389-4400), a compound of Formula (I) (100 mg/kg BID) or the combination of both by oral gavage. A vehicle control of 0.5% hydroxy propyl methyl cellulose/0.1% Tween 80 was dosed twice daily given orally. Dosing was continued for 17 days and tumour volume, body weight and tumour condition were recorded twice weekly for the duration of the study.

A further experiment has as its target T1, MCT1 (Homo sapiens, UniProt P53985).
T1 construct: a human erythroleukemia line predominantly expressing MCT1, a small amount of MCT2 and no MCT4; host or cells: K562
T1 sequence (P53985 1-500): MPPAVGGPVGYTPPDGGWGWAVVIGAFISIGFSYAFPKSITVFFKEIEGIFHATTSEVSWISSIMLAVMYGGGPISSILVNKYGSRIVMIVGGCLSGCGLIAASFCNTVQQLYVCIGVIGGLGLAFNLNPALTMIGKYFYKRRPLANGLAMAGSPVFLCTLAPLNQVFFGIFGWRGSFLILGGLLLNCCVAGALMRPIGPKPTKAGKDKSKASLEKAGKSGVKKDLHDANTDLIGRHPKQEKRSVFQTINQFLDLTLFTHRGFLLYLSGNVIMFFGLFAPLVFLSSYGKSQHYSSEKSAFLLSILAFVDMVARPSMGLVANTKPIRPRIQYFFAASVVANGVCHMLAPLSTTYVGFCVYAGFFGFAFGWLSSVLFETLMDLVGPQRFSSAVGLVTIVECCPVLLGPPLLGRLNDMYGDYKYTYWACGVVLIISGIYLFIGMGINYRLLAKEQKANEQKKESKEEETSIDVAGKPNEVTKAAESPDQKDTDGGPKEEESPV
Briefly: Assay (c): FLIPR BCECF lactate influx in K562 cells. The format is cell-based. As to conditions: mean of at least three repeats, read-out: MCT1 FLIPR pIC50 (K562) (converted).

The test system of experiment [2] is MC38 MCT1 KO murine colorectal cell line. Briefly: Mouse syngeneic model, αCTLA4 antibody combination (first study, FIG. 4). The format is in vivo, female C57·B16 mice. As to conditions: Day 15. The source says:
The in vivo efficacy of MCT4 inhibitors has been tested in murine syngeneic models. To test the selective impact of MCT4 inhibitors of Formula (I), MCT1 was knocked-out (KO) of the MC38 syngeneic cell line model using CRISPR precise genome editing. The MC38 MCT1 KO murine colorectal cell line can be grown sub-cutaneously in female C57·B16 mice and tumour volume calculated from bilateral caliper measurements. For efficacy studies, ten million cells were inoculated subcutaneously onto the left flank of the animal in a volume of 0.1 ml serum free DMEM media. Animals were randomised by bodyweight at the time of cell implantation and treatment started the following day. In the first of these studies shown in FIG. 4, monotherapy treatment arms received either a compound of Formula (I) (100 mg/kg BID) by oral gavage or αCTLA4 antibody (anti-CTLA-4 9D9 mlgG1 antibody, described in WO200712373) (10 mg/kg twice weekly) intraperitoneally. Combination groups consisted of a compound of Formula (I) (100 or 10 mg/kg PO BID) with αCTLA4 antibody (10 mg/kg IP twice weekly). In the second of these studies shown in FIG. 5, monotherapy treatment arms received either a compound of Formula (I) (30 mg/kg PO BID) with αPD-1 antibody (from Bio X Cell, Catalogue #BE0146, Lot 665417s1, 6.78 mg/mL) (10 mg/kg IP twice weekly). In both studies dosing was continued for up to 6 weeks and tumour volume, body weight and tumour condition were recorded three times weekly. Vehicle was 0.5% hydroxy propyl methyl cellulose/0.1% Tween 80 given twice daily by oral gavage with PBS/a given twice weekly intraperitoneally in both studies.
Individual tumour growth profiles are shown with animals taken off study using time to event criteria based on a maximum tumour volume of 1.5 cm^3, tumour condition or animal welfare limits. Due to animals coming off study during the later stages of the experiment, GeoMean percentage inhibition values were calculated on Day 15. […] Monotherapy αCTLA4 (10 mg/kg) was ineffective with 6.1%^NS.

The test system is the same in experiment [3]. Briefly: Mouse syngeneic model, αPD-1 antibody combination (second study, FIG. 5). It is filed as in vivo, female C57·B16 mice. The conditions noted are these: Day 13. The source says:
The in vivo efficacy of MCT4 inhibitors has been tested in murine syngeneic models. To test the selective impact of MCT4 inhibitors of Formula (I), MCT1 was knocked-out (KO) of the MC38 syngeneic cell line model using CRISPR precise genome editing. The MC38 MCT1 KO murine colorectal cell line can be grown sub-cutaneously in female C57·B16 mice and tumour volume calculated from bilateral caliper measurements. For efficacy studies, ten million cells were inoculated subcutaneously onto the left flank of the animal in a volume of 0.1 ml serum free DMEM media. Animals were randomised by bodyweight at the time of cell implantation and treatment started the following day. […] In both studies dosing was continued for up to 6 weeks and tumour volume, body weight and tumour condition were recorded three times weekly. […]
Again, individual tumour growth profiles are shown with animals taken off study using time to event criteria based on a maximum tumour volume of 1.5 cm^3, tumour condition or animal welfare limits. Due to animals reaching the time to event endpoint at different times during the later stages of the experiment GeoMean percentage inhibition values were calculated on Day 13.

In experiment [4] the target is T2, MCT4 (Homo sapiens, UniProt O15427).
T2 sequence (O15427 1-465): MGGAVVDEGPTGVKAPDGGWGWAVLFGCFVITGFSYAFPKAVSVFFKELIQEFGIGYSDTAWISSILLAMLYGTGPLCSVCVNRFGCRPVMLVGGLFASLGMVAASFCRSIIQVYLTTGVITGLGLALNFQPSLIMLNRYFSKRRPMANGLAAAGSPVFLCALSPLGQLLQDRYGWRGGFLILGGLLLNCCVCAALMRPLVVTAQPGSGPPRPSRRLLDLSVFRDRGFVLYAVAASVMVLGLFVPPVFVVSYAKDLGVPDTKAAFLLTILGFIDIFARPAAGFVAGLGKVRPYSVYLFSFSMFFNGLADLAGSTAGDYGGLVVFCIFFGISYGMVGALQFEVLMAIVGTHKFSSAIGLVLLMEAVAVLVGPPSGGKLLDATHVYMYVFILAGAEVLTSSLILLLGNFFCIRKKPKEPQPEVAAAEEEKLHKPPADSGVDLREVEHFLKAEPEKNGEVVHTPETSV
Briefly: cell-based.

In experiment [5] the target is T2, MCT4. Briefly: Assay (d): FLIPR BCECF lactate influx in INS-1 MCT4 cells. It is filed as cell-based, rat. More on the design: expressed in transfected cells. As to conditions: INS-1 cells stably expressing human MCT4; mean of at least three repeats; read-out: MCT4 FLIPR pIC50 (INS-1) (converted). The procedure: INS-1 MCT4 cells were generated through transfection of the parental cell background with the following DNA sequence, inserted into a pcDNA3.1 (ThermoFisher #V79020) mammalian expression vector:
The resultant cell pool was continually cultured at 37° C. and 5% CO2 under antibiotic selection in RPMI (Sigma #R0883) medium containing 1% L glutamine (Sigma #G7513), 10% FBS (Sigma #F7524), 10 mM [final] […] An individual clone was selected and expanded before being cryopreserved in a number of individual vials for continued use. Prior to testing in the biological assay, an individual INS-1 MCT4 cryovial was defrosted and continually passaged over a number of weeks—in the Geneticin selection media described previously—to obtain the requesite cell number.

The target in experiment [6] is T2, MCT4. Briefly: Assay (a): lactate efflux from SK-Br-3 cells (lactate in media, 4 h). It is filed as cell-based. More on the design: a natively glycolytic human breast adenocarcinoma line predominantly expressing MCT4; host or cells: SK-Br-3. As to conditions: mean of at least three repeats (Example 32, marked *, two repeats), read-out: MCT4 lactate efflux pIC50 (SKBR3) (converted). The method, then:
Assay plates were lidded and incubated for 4 hours at 37° C. and 5% CO2.

Structures are written as SMILES. pIC50: −log10 of the molar value. A value given as a limit tells only on which side of the number the result lay.

For the molecule `COc1cc2c(Oc3ccc4[nH]c(C)cc4c3F)ncnc2cc1OCCCN1CCCC1` [AZD2171, reference compound], in experiment [1] (AZD2171 alone 3 mg/kg QD oral, 17 days dosing, p<0.001), the “tumour regression compared to the vehicle group” value turned out to be 33%.

In the case of `Cc1nc2nc(C)c(O[C@@H]3CCN(c4ccc(-c5ccc(CN6CCOCC6)nn5)cc4)C3)c(C)n2n1` [Example 62, (R)-4-((6-(4-(3-((2,5,7-trimethyl-[1,2,4]triazolo[1,5-a]pyrimidin-6-yl)oxy)pyrrolidin-1-yl)phenyl)pyridazin-3-yl)methyl)morpholine], the IC50 at MCT1 is greater than 25.1 µM. Also, the tumour regression in experiment [1] (combination of AZD2171 (3 mg/kg QD) with Example 62 (100 mg/kg BID), oral, 17 days, p<0.001 vs control, p=0.013 vs AZD2171 alone) was found to be 72%. For the same molecule, the “GeoMean percentage growth inhibition vs vehicle control” value is 67.4% in experiment [2] (Example 62 10 mg/kg PO BID with αCTLA4 antibody 10 mg/kg IP twice weekly, p≤0.01); 82.2% in experiment [2] (Example 62 100 mg/kg PO BID with αCTLA4 antibody 10 mg/kg IP twice weekly, p≤0.001, p=0.0311 vs Example 62 alone); 60.0% in experiment [2] (Example 62 monotherapy 100 mg/kg BID PO, p≤0.05); 82.3% in experiment [3] (Example 62 30 mg/kg PO BID with αPD-1 antibody 10 mg/kg IP twice weekly, p≤0.001); 30.1% in experiment [3] (Example 62 monotherapy 30 mg/kg PO BID, NS).

As a reminder, the pIC50 is the IC50 on a negative log10 scale, so that one unit is a factor of ten. Higher therefore signals a small IC50. Regarding `Cc1nc2nc(C)c(O[C@@H]3CCN(c4ccc(-c5ccc(CN6CCCCCC6)nn5)cc4)C3)c(C)n2n1` [Example 85, (R)-6-((1-(4-(6-(azepan-1-ylmethyl)pyridazin-3-yl)phenyl)pyrrolidin-3-yl)oxy)-2,5,7-trimethyl-[1,2,4]triazolo[1,5-a]pyrimidine], the IC50 on MCT1 was greater than 25.1 µM; on MCT4 [5] it was 0.00631 µM; on MCT4 [6] it was 0.00126 µM. Further, on MCT4 [4], the pIC50 is 7.70.
